{"source": "PubChem BioAssay AID857", "about": "(Vanderbilt High Throughput Screening Facility, 2007)", "note": "Active and inactive are the calls of the source.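 How the source made its calls: active means a full or partial dose-response curve in at least two of three replicate runs; inactive means the rest.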", "data": [{"target": "D(1B) dopamine receptor (Homo sapiens) (UniProt P21918)", "sequence (P21918 whole entry, looked up)": "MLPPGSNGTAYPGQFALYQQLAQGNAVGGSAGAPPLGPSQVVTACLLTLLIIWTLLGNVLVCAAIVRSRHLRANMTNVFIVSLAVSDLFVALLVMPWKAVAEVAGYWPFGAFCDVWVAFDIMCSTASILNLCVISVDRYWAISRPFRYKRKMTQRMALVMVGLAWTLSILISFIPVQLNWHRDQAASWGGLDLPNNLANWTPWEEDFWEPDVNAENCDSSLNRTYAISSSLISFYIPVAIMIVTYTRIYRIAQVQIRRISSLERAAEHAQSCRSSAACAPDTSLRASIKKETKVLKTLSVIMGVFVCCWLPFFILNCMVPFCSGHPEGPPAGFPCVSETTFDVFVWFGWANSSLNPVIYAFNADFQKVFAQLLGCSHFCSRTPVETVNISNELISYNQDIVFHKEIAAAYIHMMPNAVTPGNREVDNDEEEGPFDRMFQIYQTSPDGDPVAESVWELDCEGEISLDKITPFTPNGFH", "test": "D5 receptor allosteric modulators, concentration-response – cell-based, HEK293, CRE-luciferase, luminescence, EC30 dopamine, selectivity assay for D1 allosteric modulator project, dose response (AID 857);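 further: HEK 293 cells expressing human D5 with a CRE-driven luciferase reporter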", "units": {"EC50": "nM"}, "values": [{"molecule": "CC1(C)CC(=O)C2=C(C1)OC(N)=C(C#N)C2c1cccc(OC(=O)c2ccco2)c1", "note": "(configuration not stated)", "outcome": "inactive"}, {"molecule": "COc1cccc(-c2nnc(SCC(=O)Nc3cc(C)on3)o2)c1", "outcome": "inactive"}, {"molecule": "CCOc1ccccc1NC(=O)CN(C)S(=O)(=O)c1cccc2nsnc12", "outcome": "inactive"}, {"molecule": "Cn1c(=O)c2c(nc(SCCCO)n2Cc2ccccc2Cl)n(C)c1=O", "outcome": "inactive"}, {"molecule": "CC(=O)c1nn(-c2cccc(Cl)c2)cc1C(=O)c1ccco1", "outcome": "inactive"}, {"molecule": "COC(=O)c1ccccc1NC(=O)COc1ccc(S(=O)(=O)N2CCCC2)cc1C", "outcome": "inactive"}, {"molecule": "Cc1ccccc1NC(=O)c1nc[nH]c1C(=O)NCc1ccccc1", "outcome": "inactive"}, {"molecule": "CCN(CCCNC(=O)CN(C)S(=O)(=O)c1cccc2nsnc12)c1cccc(C)c1", "outcome": "inactive"}, {"molecule": "CCOc1ccc(N/C(SC)=C(/C#N)C(N)=O)cc1", "outcome": "inactive"}, {"molecule": "N#Cc1c2c(nc(N)c1-c1ccccc1)CCCCC2", "outcome": "inactive"}, {"molecule": "Cc1noc(C)c1S(=O)(=O)N1CCCC(C(=O)NCc2ccccn2)C1", "note": "(configuration not stated)", "outcome": "inactive"}, {"molecule": "CCCCCn1c(SCC(=O)OC)nc2c1c(=O)[nH]c(=O)n2C", "outcome": "inactive"}, {"molecule": "CCC(=O)Nc1cccc(NC(=O)c2cc3ccccc3o2)c1", "outcome": "inactive"}, {"molecule": "Clc1ccc(-n2nnnc2-c2ccccc2)cc1", "outcome": "inactive"}, {"molecule": "CCOC(=O)c1c(C)oc2c1c(C=NCc1ccccn1)c(O)c1ccccc12", "outcome": "inactive"}, {"molecule": "Nc1nc(CN2CCN(c3ccccc3)CC2)nc(N2CCCc3ccccc32)n1", "outcome": "inactive"}, {"molecule": "O=S(=O)(Nc1cc(Cl)ccc1N1CCCCC1)c1cccs1", "outcome": "inactive"}, {"molecule": "CCOC(=O)c1c(C)c(C(=O)NCc2ccccc2OC)c(C)n1C", "outcome": "inactive"}, {"molecule": "N#Cc1ccc(-c2ccco2)nc1SCc1ccccc1", "outcome": "inactive"}, {"molecule": "CC(=O)c1cc(C#N)c(SCC(=O)OC(C)(C)C)nc1C", "outcome": "inactive"}, {"molecule": "Cn1c(=O)c2c(-c3ccccc3)n(N3CCOCC3)cc2n(C)c1=O", "outcome": "inactive"}, {"molecule": "O=CN1Cc2[nH]c3ccccc3c2N(c2ccc(Cl)cc2)C1=O", "outcome": "inactive"}, {"molecule": "COc1ccc(OC)c(C2C=C(c3ccc(C)c(C)c3)Nc3nnnn32)c1", "note": "(configuration not stated)", "outcome": "inactive"}, {"molecule": "CCOc1ccc(-c2nnn(CC(=O)NCc3ccc(OC)cc3)n2)cc1OCC", "EC50": 473}, {"molecule": "CCCn1c(=NC(=O)c2ccco2)c(C(=O)OCC)cc2c(=O)n3ccccc3nc21", "outcome": "inactive"}, {"molecule": "COc1cccc(NC2=NCC(=O)N2Cc2cccs2)c1", "outcome": "inactive"}, {"molecule": "N#Cc1nc(N)nc(N(c2ccccc2)c2ccccc2)n1", "outcome": "inactive"}, {"molecule": "Nc1ncnc2c1ncn2CCOc1ccccc1", "outcome": "inactive"}, {"molecule": "Cc1ccc(Oc2ccccc2)c(NC=O)c1", "outcome": "inactive"}, {"molecule": "NC(=O)c1oc2ccccc2c1NC(=O)c1ccc(F)cc1", "outcome": "inactive"}, {"molecule": "Cc1cccc(C2CC(c3ccc(F)cc3)Nc3nc(N)nn32)c1", "note": "(configuration not stated)", "outcome": "inactive"}, {"molecule": "C=CCn1c(SCC(=O)Nc2sc(C)c(C)c2C(=O)OCC)nnc1-c1sc(N)nc1C", "outcome": "inactive"}, {"molecule": "O=C1CC(c2ccsc2)c2cc3c(cc2N1)OCCO3", "note": "(configuration not stated)", "outcome": "inactive"}, {"molecule": "Cc1cc(N2CCN(S(=O)(=O)c3ccc4c(c3)OCCO4)CC2)n2ncnc2n1", "outcome": "inactive"}, {"molecule": "CCOC(=O)c1oc2ccc(Br)cc2c1NC(=O)CN1CCN(C)CC1", "outcome": "inactive"}, {"molecule": "CCOc1cc(C2C(C#N)=C(N)Oc3n[nH]c(-c4ccccc4)c32)ccc1O", "note": "(configuration not stated)", "outcome": "inactive"}, {"molecule": "CCCNc1nc2c(c(=O)[nH]c(=O)n2C)n1CCc1ccccc1", "outcome": "inactive"}, {"molecule": "Cc1c(C)c2ccc(OC3CCCCC3=O)cc2oc1=O", "note": "(configuration not stated)", "outcome": "inactive"}, {"molecule": "CC1=CC(C)(C)N=C(NC#N)N1", "outcome": "inactive"}, {"molecule": "COc1ccccc1NC(=O)CC1Nc2ccccc2NC1=O", "note": "(configuration not stated)", "outcome": "inactive"}, {"molecule": "COC(=O)c1c(-c2ccccc2)csc1NC(=O)c1ccco1", "outcome": "inactive"}, {"molecule": "Cn1cnc2c1c(=O)n(Cc1ccc(F)cc1Cl)c(=O)n2C", "outcome": "inactive"}, {"molecule": "C=CCNC(=O)C1CC(c2cccc(OC)c2)=NO1", "note": "(configuration not stated)", "outcome": "inactive"}, {"molecule": "COc1ccc(-c2cc(=O)oc3c(C)c(O)c(CN(C)C)cc23)cc1", "outcome": "inactive"}, {"molecule": "Cc1c(C(=O)OCC(C)C)[nH]c2c1C(=O)CC(c1ccco1)C2", "note": "(configuration not stated)", "EC50": 1750}, {"molecule": "CCCCCn1c(N)c(C#N)c2nc3ccccc3nc21", "outcome": "inactive"}, {"molecule": "CC(=O)c1cc(C#N)c(SCc2ccncc2)nc1C", "outcome": "inactive"}, {"molecule": "COc1ccc(OC)c(/C=N/c2oc(-c3ccco3)c(-c3ccco3)c2C#N)c1", "outcome": "inactive"}, {"molecule": "CCOc1cc(C2CC(=O)NC(SCC)=C2C#N)ccc1O", "note": "(configuration not stated)", "outcome": "inactive"}, {"molecule": "Cc1[nH]nc2c1C(c1ccc(F)cc1)C1=C(CC(C)(C)CC1=O)N2", "note": "(configuration not stated)", "outcome": "inactive"}, {"molecule": "CCOC(=O)Nc1sc(C(=O)N(CC)CC)c(C)c1C(=O)OCC", "outcome": "inactive"}, {"molecule": "CCOC(=O)c1oc2ccc(S(=O)(=O)N3CCOCC3)cc2c1C", "outcome": "inactive"}, {"molecule": "Cc1ccc(-n2c(=O)cc(N3CC(C)CC(C)C3)[nH]c2=O)cc1", "note": "(configuration not stated)", "outcome": "inactive"}, {"molecule": "O=C(OCCCCN1C(=O)c2ccccc2C1=O)c1n[nH]c2ccccc12", "outcome": "inactive"}, {"molecule": "Cc1cccc(-c2c3c(=O)n(C)c(=O)n(C)c3cn2-c2ccccc2O)c1", "outcome": "inactive"}, {"molecule": "Cc1cc(C)n(CC(=O)n2c3c(c4ccccc42)CCCC3)n1", "outcome": "inactive"}, {"molecule": "Cc1ccc(Nc2nnc(SCc3cc(=O)n4ccsc4n3)s2)c(C)c1", "outcome": "inactive"}, {"molecule": "C/C(N)=C(/C#N)C(=O)CSc1nnc(SCc2ccc(Cl)cc2)s1", "outcome": "inactive"}, {"molecule": "Cc1cc(C)n(-c2nc3ccccc3nc2Nc2ccc(CC(=O)O)cc2)n1", "EC50": 1110}, {"molecule": "Cc1cccc(Cc2c(C)nc3c(C(=O)NCc4ccco4)cnn3c2C)c1", "outcome": "inactive"}, {"molecule": "Clc1cccc(Nc2c3c(nc4ncnn24)CCC3)c1", "outcome": "inactive"}, {"molecule": "Cc1cc(-n2nc(C)cc2C)nc(NS(=O)(=O)c2ccccc2)n1", "outcome": "inactive"}]}]}
